This note sets out measurements from paper PMC6596218, “Anthranilic amide and imidazobenzothiadiazole compounds disrupt Mycobacterium tuberculosis membrane potential” (MedChemComm, 2019).

One data set deals with M. tuberculosis H37Rv. Description: Minimum bactericidal concentration at pH 4.5 (MBC4.5), luminescence readout. As to conditions: for MBC: Mycobacterium tuberculosis, H37RV, 168 h; for antitubercular activity (by MBC4.5, in words): pH 4.5. In kind it is cell-based, Mycobacterium tuberculosis.
The test system of data set [1] is HepG2 cells. Description: HepG2 cytotoxicity (CellTiter-Glo, 72 h). It counts as cell-based. As to conditions: Homo sapiens, mean ± standard deviation, replicates in parentheses. On the technique in general: Cellular ATP, detected with luciferase, serves as a proxy for viable cell number.
In data set [2] the test system is HepG2 cells. In kind it is cell-based, human. As to conditions: pH 7.4. On the procedure: Measurement of membrane potential in HepG2 human liver cells (ATCC) was adapted from the method published by Huang.[40] Cells were plated at a density of 50 000 cells per well (100 μL) in black-walled 96-well plates and incubated overnight. Culture medium was replaced with the same volume of assay buffer (80 mM NaCl, 75 mM KCl, 25 mM D-glucose, 25 mM HEPES pH 7.4) containing test compounds at indicated concentrations; CCCP and DMSO served as controls. Plates were incubated at 37 °C for 30 min, followed by incubation with 4 μM DiOC2 for 20 min at RT. Cells were washed 4 times with 150 μL assay buffer, and suspended in 100 μL of assay buffer. A Synergy H1 microplate reader (BioTek Instruments) was used to measure fluorescence (488 nm/530 nm and 488 nm/620 nm). Each test compound was evaluated in at least two replicate experiments.

Data set [3] has as its system M. tuberculosis membrane potential. Description: M. tuberculosis membrane potential (DiOC2 red/green fluorescence ratio). It counts as cell-based, Mycobacterium tuberculosis. As to conditions: CCCP positive control.
Where [4] appears, read: median, pH 4.5 phosphate citrate buffer, 7 days, 2-log reduction threshold, replicates in parentheses.

In brackets after ≈: the same amount, converted by molar mass. Entries after “also recorded” stand apart in the source; their conditions may differ. Like-named read-outs stand apart in the source and are kept apart here.

Broadly, the MBC is the smallest concentration meeting the test's criterion for killing. By IC50 is commonly meant the concentration needed to halve the response being measured. Consider `FC(F)(F)c1nc2ccc3nsnc3c2[nH]1` [Compound 34], for which the MBC in the data set on M. tuberculosis H37Rv (setting [4]) was 75 µM (≈ 18.3 µg/mL). Moreover, the IC50 in the data set with HepG2 cells [1] amounted to 70 ± 11 µM.
Taken in the same sequence, the figures for `O=C(Nc1ccc(Cl)cc1)[C@@H]1CCCC[C@@H]1NS(=O)(=O)c1ccc(Br)cc1` (relative stereo) [Compound 30, cis-2-(4-bromophenylsulfonamido)-N-(4-chlorophenyl)cyclohexanecarboxamide] were more than 200 µM and 76 ± 12 µM.
For the molecule `Cc1nnc(Sc2ccc3nsnc3c2[N+](=O)[O-])s1` [Compound 37], the MBC with M. tuberculosis H37Rv (setting [4]) was 19 µM (≈ 5.92 µg/mL). Besides, the IC50 with HepG2 cells [1] came to 5.6 ± 3.2 µM. The “disruption of HepG2 cell membrane potential” value in the data set on HepG2 cells [2] is given as “drop in membrane potential”.
In the case of `O=C(NC1CC1)c1ccccc1NS(=O)(=O)c1ccc(Br)cc1` [Compound 17, 2-(4-bromophenylsulfonamido)-N-cyclopropylbenzamide], in the data set on M. tuberculosis H37Rv (setting [4]), the MBC is more than 200 µM. For the same molecule, in the data set on HepG2 cells [1], the IC50 was more than 100 µM.
Taken in the same sequence, the figures for `O=C(Nc1ccc(Cl)cc1)c1cccnc1NS(=O)(=O)c1ccc(Br)cc1` [Compound 33, 2-(4-bromophenylsulfonamido)-N-(4-chlorophenyl)nicotinamide] were more than 200 µM and 20 ± 5.7 µM.
Turning to `CCNc1ccccc1C(=O)Nc1ccc(Cl)cc1Cl` [Compound 10, N-(2,4-dichlorophenyl)-2-(ethylamino)benzamide], the MBC in the data set with M. tuberculosis H37Rv (setting [4]) was more than 200 µM. For the same molecule, the “disruption of M. tuberculosis membrane potential at pH 5.6” value (“disruption … at pH 5.6” below) in data set [3] is listed as “caused membrane hyperpolarization”. Further, in the data set with HepG2 cells [1], the IC50 was more than 100 µM. Besides, the “disruption of HepG2 cell membrane potential” value with HepG2 cells [2] (human, 30 min) is reported as “did not disrupt membrane potential at concentrations up to 200 μM”.
For the molecule `O=C(NC1CCCCCC1)c1ccccc1NS(=O)(=O)c1ccc(Br)cc1` [Compound 19, 2-(4-bromophenylsulfonamido)-N-cycloheptylbenzamide], in the data set on M. tuberculosis H37Rv (setting [4]), the minimal bactericidal concentration (MBC) was more than 200 µM. Besides, in the data set with HepG2 cells [1], the IC50 amounted to 24 ± 6.4 µM.
As for `Nc1ccccc1C(=O)Nc1ccc(Cl)cc1Cl` [Compound 9, 2-amino-N-(2,4-dichlorophenyl)benzamide], the MBC in the data set with M. tuberculosis H37Rv (setting [4]) was determined as 200 µM (≈ 56.2 µg/mL). Besides, the IC50 in the data set on HepG2 cells [1] came to 40 ± 2.3 µM.
For the molecule `O=C(Nc1ccc(Cl)cc1)c1ncccc1NS(=O)(=O)c1ccc(Br)cc1` [Compound 32, 3-(4-bromophenylsulfonamido)-N-(4-chlorophenyl)picolinamide], the MBC in the data set on M. tuberculosis H37Rv (setting [4]) is more than 200 µM. Further, the IC50 with HepG2 cells [1] worked out at 5 ± 1.4 µM.
Turning to `O=C(Nc1ccc(Cl)cc1Cl)c1ccccc1NCc1ccc(Br)cc1` [Compound 12, 2-((4-bromobenzyl)amino)-N-(2,4-dichlorophenyl)benzamide], the MBC with M. tuberculosis H37Rv (setting [4]) is more than 200 µM. Further, the IC50 in the data set with HepG2 cells [1] was more than 100 µM.
As to `O=C(Nc1ccccc1)c1ccccc1NS(=O)(=O)c1ccc(Br)cc1` [Compound 4, 2-(4-bromophenylsulfonamido)-N-phenylbenzamide], the MBC in the data set with M. tuberculosis H37Rv (setting [4]) came to 100 µM (≈ 43.1 µg/mL). Also, the “disruption … at pH 5.6” value in data set [3] was “comparable disruption to CCCP at concentrations one or more orders of magnitude below their MBC4.5”. Besides, in the data set on HepG2 cells [1], the IC50 came to 30 ± 3.5 µM. Also, in the data set on HepG2 cells [2] (human, 30 min), the “disruption of HepG2 cell membrane potential” value is “decrease in membrane potential in HepG2 cells comparable in magnitude to CCCP at concentrations significantly below the IC50”.
In the case of `CCNC(=O)c1ccccc1NS(=O)(=O)c1ccc(Br)cc1` [Compound 5, 2-(4-bromophenylsulfonamido)-N-ethylbenzamide], the MBC in the data set with M. tuberculosis H37Rv (setting [4]) is more than 200 µM. For the same molecule, the IC50 in the data set with HepG2 cells [1] is more than 100 µM.
`CCCCNC(=O)c1ccccc1NS(=O)(=O)c1ccc(Br)cc1` [Compound 16, 2-(4-bromophenylsulfonamido)-N-butylbenzamide]: the MBC with M. tuberculosis H37Rv (setting [4]) turned out to be 100 µM (≈ 41.1 µg/mL). Moreover, in the data set on M. tuberculosis H37Rv, the “antitubercular activity (by MBC4.5, in words)” value (“antitubercular activity” for short) is given as “showed measurable anti-tubercular activity”. The “disruption … at pH 5.6” value in data set [3] is listed as “disruption at significantly lower concentrations relative to pH 6.8; also recorded: comparable disruption to CCCP at concentrations one or more orders of magnitude below their MBC4.5; also recorded: larger, more consistent degree of separation from DMSO than CCCP”. In addition, the IC50 in the data set on HepG2 cells [1] is 59 ± 0.71 µM. In the data set on HepG2 cells [2] (human, 30 min), the “disruption of HepG2 cell membrane potential” value is “decrease in membrane potential in HepG2 cells comparable in magnitude to CCCP at concentrations significantly below the IC50”.
On to `O=C(Nc1ccc(Cl)cc1Cl)c1ccccc1NS(=O)(=O)c1ccccc1` [Compound 7, N-(2,4-dichlorophenyl)-2-(phenylsulfonamido)benzamide], for which the MBC in the data set with M. tuberculosis H37Rv (setting [4]) was more than 200 µM. The IC50 in the data set with HepG2 cells [1] came to 19 ± 9.2 µM.
For `CCn1cnc2c3nsnc3ccc21` [Compound 35] the same measures were 75 µM (≈ 15.3 µg/mL) and more than 100 µM.
As for `O=S(=O)(Nc1ccccc1CNc1ccc(Cl)cc1Cl)c1ccc(Br)cc1` [Compound 28, 4-bromo-N-(2-(((2,4-dichlorophenyl)amino)methyl)phenyl)benzenesulfonamide], in the data set on M. tuberculosis H37Rv (setting [4]), the MBC is more than 200 µM. Besides, the IC50 with HepG2 cells [1] amounted to 33 µM.
For the molecule `O=C(Nc1ccccc1C(=O)Nc1ccc(Cl)cc1Cl)c1ccc(Br)cc1` [Compound 14, 2-(4-bromobenzamido)-N-(2,4-dichlorophenyl)benzamide], the MBC with M. tuberculosis H37Rv (setting [4]) is more than 200 µM. In the data set with HepG2 cells [1], the IC50 is more than 100 µM.
On to `O=C(c1ccccc1NS(=O)(=O)c1ccc(Br)cc1)N1CCOCC1` [Compound 22, 4-bromo-N-(2-(morpholine-4-carbonyl)phenyl)benzenesulfonamide], for which the MBC in the data set with M. tuberculosis H37Rv (setting [4]) was more than 200 µM. Further, the IC50 in the data set on HepG2 cells [1] is more than 100 µM.
For `O=S(=O)(Nc1ccccc1COc1ccc(Cl)cc1Cl)c1ccc(Br)cc1` [Compound 29, 4-bromo-N-(2-((2,4-dichlorophenoxy)methyl)phenyl)benzenesulfonamide], in the data set with M. tuberculosis H37Rv (setting [4]), the minimum bactericidal concentration (MBC) is more than 200 µM. Also, the 50% inhibitory concentration (IC50) in the data set with HepG2 cells [1] is 24 ± 6.4 µM.
Taken in the same sequence, the figures for `CN1CCN(C(=O)c2ccccc2NS(=O)(=O)c2ccc(Br)cc2)CC1` [Compound 23, 4-bromo-N-(2-(4-methylpiperizine-1-carbonyl)phenyl)benzenesulfonamide] were more than 200 µM and more than 100 µM.
Taken in the same sequence, the figures for `Nc1ccc2[nH]c(C3CCCCC3)nc2c1` [Compound 36] were 100 µM (≈ 21.5 µg/mL) and more than 100 µM.
Taken in the same sequence, the figures for `O=C(Nc1ccc(Cl)cc1)[C@@H]1CCCC[C@H]1NS(=O)(=O)c1ccc(Br)cc1` (relative stereo) [Compound 31, trans-2-(4-bromophenylsulfonamido)-N-(4-chlorophenyl)cyclohexanecarboxamide] were more than 200 µM and 67 ± 12 µM.
Regarding `O=C(Nc1ccc(Cl)cc1Cl)c1ccccc1S(=O)(=O)c1ccc(Br)cc1` [Compound 27, 2-((4-bromophenyl)sulfonyl)-N-(2,4-dichlorophenyl)benzamide], in the data set with M. tuberculosis H37Rv (setting [4]), the MBC was more than 200 µM. The “antitubercular activity” value in the data set with M. tuberculosis H37Rv is recorded as “loss of antitubercular activity”. In addition, in the data set with HepG2 cells [1], the IC50 worked out at 89 ± 18 µM.
On to `C#CCNC(=O)c1ccccc1NS(=O)(=O)c1ccc(Br)cc1` [Compound 18, 2-(4-bromophenylsulfonamido)-N-(pro-2-yn-1-yl)benzamide], for which, in the data set on M. tuberculosis H37Rv (setting [4]), the MBC is more than 200 µM. Moreover, the IC50 in the data set with HepG2 cells [1] was 83 ± 12 µM.
As for `O=C(NC1C2CC3CC(C2)CC1C3)c1ccccc1NS(=O)(=O)c1ccc(Br)cc1` (centres unmarked) [Compound 20, N-(adamantan-2-yl)-2-(4-bromophenylsulfonamido)benzamide], the MBC in the data set with M. tuberculosis H37Rv (setting [4]) was more than 200 µM. In the data set on HepG2 cells [1], the IC50 is 20 ± 4.2 µM.
On to `CC(=O)Nc1ccccc1C(=O)Nc1ccc(Cl)cc1Cl` [Compound 13, 2-acetamido-N-(2,4-dichlorophenyl)benzamide], for which the MBC in the data set on M. tuberculosis H37Rv (setting [4]) was more than 200 µM. Besides, in the data set with HepG2 cells [1], the IC50 was more than 100 µM.
As to `O=C(c1ccccc1NS(=O)(=O)c1ccc(Br)cc1)N1CCCCC1` [Compound 21, 4-bromo-N-(2-(piperidine-1-carbonyl)phenyl)benzenesulfonamide], the MBC in the data set with M. tuberculosis H37Rv (setting [4]) was more than 200 µM. The IC50 in the data set on HepG2 cells [1] was more than 100 µM.
In the case of `O=C(Nc1ccc(Cl)cc1Cl)c1cccc(NS(=O)(=O)c2ccc(Br)cc2)c1` [Compound 26, 3-(4-bromophenylsulfonamido)-N-(2,4-dichlorophenyl)benzamide], the MBC in the data set on M. tuberculosis H37Rv (setting [4]) is more than 200 µM. Further, the “antitubercular activity” value in the data set with M. tuberculosis H37Rv is listed as “loss of antitubercular activity”. Further, the IC50 with HepG2 cells [1] was 34 ± 3.5 µM.
On to `O=C(Nc1ccc(Cl)cc1Cl)c1ccccc1NS(=O)(=O)c1ccc(Br)cc1` [Compound 1], for which, in the data set on M. tuberculosis H37Rv (setting [4]), the MBC is 6.3 µM (≈ 3.15 µg/mL) and the MBC4.5 was 6.3 (5) μM. Also, the “disruption … at pH 5.6” value in data set [3] is on record as “comparable disruption to CCCP at concentrations one or more orders of magnitude below their MBC4.5”. The “disruption of M. tuberculosis membrane potential at pH 6.8” value in data set [3] (pH 6.8) was “depolarized the membrane nearly as strongly as known uncoupler carbonyl cyanide m-chlorophenyl hydrazone (CCCP)”. Further, the IC50 in the data set with HepG2 cells [1] came out at 6.2 ± 1.1 µM.
Consider `O=[N+]([O-])c1c(Sc2ccccn2)ccc2nsnc12` [Compound 38], for which, in the data set on M. tuberculosis H37Rv (setting [4]), the MBC worked out at 25 µM (≈ 7.26 µg/mL). Besides, the IC50 with HepG2 cells [1] is 4.8 ± 0.86 µM. Also, the “disruption of HepG2 cell membrane potential” value in the data set on HepG2 cells [2] is given as “drop in membrane potential”.
